Patent publication US11180474B2 (BRISTOL-MYERS SQUIBB COMPANY, priority 2016, dated 2021)

Columns and labels:
human TLR7 = target: T1, human TLR7 (Homo sapiens, UniProt Q9NYK1); test: TLR7 inhibition reporter assay (HEK-Blue cells, SEAP reporter, gardiquimod stimulation); assay type: cell-based; conditions: HEK-Blue cells overexpressing human TLR7, gardiquimod 7.5 μM
T1 construct: host or cells: HEK-Blue cells
T1 sequence (Q9NYK1 27-1049): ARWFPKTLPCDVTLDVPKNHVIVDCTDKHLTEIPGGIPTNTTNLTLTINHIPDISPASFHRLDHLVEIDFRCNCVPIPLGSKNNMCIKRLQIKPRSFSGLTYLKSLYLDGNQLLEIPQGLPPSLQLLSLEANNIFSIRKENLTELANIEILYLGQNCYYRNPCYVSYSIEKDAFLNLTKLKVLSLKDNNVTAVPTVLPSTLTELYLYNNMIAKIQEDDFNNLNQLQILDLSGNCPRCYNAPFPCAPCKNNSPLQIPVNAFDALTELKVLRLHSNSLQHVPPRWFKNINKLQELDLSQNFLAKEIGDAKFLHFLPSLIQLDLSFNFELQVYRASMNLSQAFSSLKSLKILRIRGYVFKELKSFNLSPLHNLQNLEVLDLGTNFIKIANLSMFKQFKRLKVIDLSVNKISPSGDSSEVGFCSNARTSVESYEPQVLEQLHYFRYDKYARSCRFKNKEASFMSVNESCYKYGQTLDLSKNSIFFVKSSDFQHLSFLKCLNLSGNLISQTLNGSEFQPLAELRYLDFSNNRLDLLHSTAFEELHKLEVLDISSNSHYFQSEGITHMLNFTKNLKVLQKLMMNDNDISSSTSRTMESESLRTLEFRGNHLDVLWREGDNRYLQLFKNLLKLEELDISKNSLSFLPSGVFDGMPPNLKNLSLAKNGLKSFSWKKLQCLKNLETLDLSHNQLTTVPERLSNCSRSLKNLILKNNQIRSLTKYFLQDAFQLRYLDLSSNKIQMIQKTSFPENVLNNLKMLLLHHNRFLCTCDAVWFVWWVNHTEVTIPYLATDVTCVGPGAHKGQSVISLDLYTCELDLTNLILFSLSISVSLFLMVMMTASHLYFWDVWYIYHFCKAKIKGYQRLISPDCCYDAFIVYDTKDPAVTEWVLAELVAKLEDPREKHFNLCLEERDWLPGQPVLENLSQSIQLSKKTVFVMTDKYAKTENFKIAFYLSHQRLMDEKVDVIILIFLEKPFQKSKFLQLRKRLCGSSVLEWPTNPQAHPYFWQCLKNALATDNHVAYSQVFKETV
How it was run: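 SEAP readout via HEK-Blue Detection medium after 22 h at 37 °C, 5% CO2 defines inhibition, normalized between agonist-plus-DMSO wells and a reference inhibitor. Compound dose range 0.05 nM–50 μM; TLR7 cells at 15,000/well (gardiquimod), TLR8 at 20,000/well (R848).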

human TLR9 = target: T2, human TLR9 (Homo sapiens, UniProt Q9NR96); test: TLR9 inhibition reporter assay (HEK-Blue cells, SEAP reporter, ODN2006 stimulation); assay type: cell-based; conditions: HEK-Blue cells overexpressing human TLR9, ODN2006 5 nM
T2 construct: host or cells: HEK-Blue cells
T2 sequence (Q9NR96 26-1032): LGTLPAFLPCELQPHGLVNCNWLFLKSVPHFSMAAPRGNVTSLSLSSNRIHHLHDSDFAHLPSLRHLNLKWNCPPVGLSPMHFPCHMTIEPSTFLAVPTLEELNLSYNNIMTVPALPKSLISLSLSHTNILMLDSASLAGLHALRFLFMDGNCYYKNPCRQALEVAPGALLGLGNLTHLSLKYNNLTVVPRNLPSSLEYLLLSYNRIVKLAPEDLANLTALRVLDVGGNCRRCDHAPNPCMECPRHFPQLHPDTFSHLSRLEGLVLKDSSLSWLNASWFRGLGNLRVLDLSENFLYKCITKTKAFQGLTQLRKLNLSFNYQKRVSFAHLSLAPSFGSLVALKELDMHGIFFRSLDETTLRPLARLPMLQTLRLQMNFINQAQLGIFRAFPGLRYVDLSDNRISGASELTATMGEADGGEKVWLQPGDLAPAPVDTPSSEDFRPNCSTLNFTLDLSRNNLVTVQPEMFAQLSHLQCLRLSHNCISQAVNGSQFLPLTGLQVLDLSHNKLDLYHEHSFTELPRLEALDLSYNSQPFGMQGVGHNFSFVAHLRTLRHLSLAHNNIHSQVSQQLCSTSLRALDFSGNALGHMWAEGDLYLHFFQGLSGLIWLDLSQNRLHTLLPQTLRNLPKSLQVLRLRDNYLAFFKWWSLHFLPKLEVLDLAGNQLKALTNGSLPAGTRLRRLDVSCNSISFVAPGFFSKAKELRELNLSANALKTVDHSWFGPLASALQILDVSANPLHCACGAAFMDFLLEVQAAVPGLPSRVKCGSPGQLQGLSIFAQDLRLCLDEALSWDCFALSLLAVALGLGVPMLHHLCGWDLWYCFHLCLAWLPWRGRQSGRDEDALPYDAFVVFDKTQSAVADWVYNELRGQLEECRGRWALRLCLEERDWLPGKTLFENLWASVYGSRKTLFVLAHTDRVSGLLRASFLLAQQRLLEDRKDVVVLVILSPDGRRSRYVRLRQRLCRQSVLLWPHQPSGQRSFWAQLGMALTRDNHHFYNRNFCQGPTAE
How it was run: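 HEK-Blue cells overexpressing human TLR7, TLR8 or TLR9 carry a SEAP reporter driven by NF-κB/AP-1 sites. Compounds (0.05 nM–50 μM) were preincubated 30 min at room temperature, then cells were stimulated with gardiquimod 7.5 μM (TLR7), R848 15.9 μM (TLR8) or ODN2006 5 nM (TLR9) for 22 h at 37 °C.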

Compound	IC50 (human TLR7) [µM]	IC50 (human TLR9) [µM]
COc1ccc(-c2[nH]c3ccc(C4CCN(C(C)CN(C)C)CC4)cc3c2C)cc1OC (centres unmarked) [Example 30, 2-(4-(2-(3,4-dimethoxyphenyl)-3-methyl-1H-indol-5-yl)piperidin-1-yl)-N,N-dimethylpropan-1-amine]	0.666	0.86
COc1ccc(-c2[nH]c3ccc(C4CCN(Cc5ccc(N(C)C)cc5)CC4)cc3c2C)cc1OC [Example 37, 4-((4-(2-(3,4-dimethoxyphenyl)-3-methyl-1H-indol-5-yl)piperidin-1-yl)methyl)-N,N-dimethylaniline]	1.05	0.637
CCc1c(-c2ccc(OC)c(OC)c2)[nH]c2ccc(C3CCN(C(=O)NC(C)C)CC3)cc12 [Example 182, 4-(2-(3,4-dimethoxyphenyl)-3-ethyl-1H-indol-5-yl)-N-isopropylpiperidine-1-carboxamide]	0.61	≥ 50
COc1ccc(-c2[nH]c3ccc(C4CCN(CCN(C)C5COC5)CC4)cc3c2C)cc1OC [Example 109, N-(2-(4-(2-(3,4-dimethoxyphenyl)-3-methyl-1H-indol-5-yl)piperidin-1-yl)ethyl)-N-methyloxetan-3-amine]	≥ 50	17
COc1ccc(-c2[nH]c3ccc(C4CCN(Cc5cccc6ncccc56)CC4)cc3c2C)cc1OC [Example 15, 5-((4-(2-(3,4-dimethoxyphenyl)-3-methyl-1H-indol-5-yl)piperidin-1-yl)methyl)quinoline]	8.3	0.602
COc1ccc(-c2[nH]c3ccc(C4CCN(Cc5ccc(N6CCCC6)cc5)CC4)cc3c2C)cc1OC [Example 46, 2-(3,4-dimethoxyphenyl)-3-methyl-5-(1-(4-(pyrrolidin-1-yl)benzyl)piperidin-4-yl)-1H-indole]	3.29	0.746
COc1ccc(-c2[nH]c3ccc(C4CCN(C5CCN(C6CCCC(C(F)(F)F)C6)CC5)CC4)cc3c2C)cc1OC (centres unmarked) [Example 79]	2.32	0.122
COc1ccc(-c2[nH]c3ccc(C4CCN(C5CCN(C6CCCC(C(F)(F)F)C6)CC5)CC4)cc3c2C)cc1OC (centres unmarked) [Example 73]	5.09	0.1
COc1ccc(-c2[nH]c3ccc(C4CCN(Cc5cncn5C)CC4)cc3c2C)cc1OC [Example 40, 2-(3,4-dimethoxyphenyl)-3-methyl-5-(1-((1-methyl-1H-imidazol-5-yl)methyl)piperidin-4-yl)-1H-indole]	0.512	2.01
COc1ccc(-c2[nH]c3ccc(C4CCN(C5COC5)CC4)cc3c2C)cc1OC [Example 7, 2-(3,4-dimethoxyphenyl)-3-methyl-5-(1-(oxetan-3-yl)piperidin-4-yl)-1H-indole]	2.16	0.569
COc1ccc(-c2[nH]c3ccc(C4CCN(C5CC(C)(C)N(C)C(C)(C)C5)CC4)cc3c2C)cc1OC [Example 22, 2-(3,4-dimethoxyphenyl)-3-methyl-5-(1′,2′,2′,6′,6′-pentamethyl-[1,4′-bipiperidin]-4-yl)-1H-indole]	1.16	1.11
COc1ccc(-c2[nH]c3ccc(C4CCN(C5CCNC5)CC4)cc3c2C)cc1OC (centres unmarked) [Example 104, 2-(3,4-dimethoxyphenyl)-3-methyl-5-(1-(pyrrolidin-3-yl)piperidin-4-yl)-1H-indole]	2.17	1.05
COc1ccc(-c2[nH]c3ccc(C4CCN(C5CCCN(C(C)C)CC5)CC4)cc3c2C)cc1OC (centres unmarked) [Example 92, 2-(3,4-dimethoxyphenyl)-5-(1-(1-isopropylazepan-4-yl)piperidin-4-yl)-3-methyl-1H-indole]	0.576	0.059

Stronger by IC50 (human TLR7), values ahead:

IC50 (human TLR7) [µM]	IC50 (human TLR9) [µM]	Compound
0.064	2.7	COc1ccc(-c2[nH]c3ccc(C4CCN(Cc5cccc(NS(C)(=O)=O)c5)CC4)cc3c2C(C)C)cc1OC [Example 260, N-(3-((4-(2-(3,4-dimethoxyphenyl)-3-isopropyl-1H-indol-5-yl)piperidin-1-yl)methyl)phenyl)methanesulfonamide]
0.344	0.157	COc1ccc(-c2[nH]c3ccc(C4CCN(C5CCCNCC5)CC4)cc3c2C)cc1OC (centres unmarked) [Example 103, 5-(1-(azepan-4-yl)piperidin-4-yl)-2-(3,4-dimethoxyphenyl)-3-methyl-1H-indole]
0.144	2.1	CCc1c(-c2ccc(OC)c(OC)c2)[nH]c2ccc(C3CCN(C(=O)CN4CCCC(CO)C4)CC3)cc12 (centres unmarked) [Example 169, 1-(4-(2-(3,4-dimethoxyphenyl)-3-ethyl-1H-indol-5-yl)piperidin-1-yl)-2-(3-(hydroxymethyl)piperidin-1-yl)ethan-1-one]
0.219	0.678	CCc1c(-c2ccc(OC)c(OC)c2)[nH]c2ccc(C3CCN(C(=O)CN4CCC(N5CCCCC5)CC4)CC3)cc12 [Example 158, 2-([1,4′-bipiperidin]-1′-yl)-1-(4-(2-(3,4-dimethoxyphenyl)-3-ethyl-1H-indol-5-yl)piperidin-1-yl)ethan-1-one]
0.179	33.2	CCc1c(-c2ccc(OC)c(OC)c2)[nH]c2ccc(C3CCN(C(=O)CN4CCOCC4)CC3)cc12 [Example 167, 1-(4-(2-(3,4-dimethoxyphenyl)-3-ethyl-1H-indol-5-yl)piperidin-1-yl)-2-morpholinoethan-1-one]
0.364	5.09	COc1ccc(-c2[nH]c3ccc(C4CCN(Cc5cccc(C#N)c5)CC4)cc3c2C(C)C)cc1OC [Example 264, 3-((4-(2-(3,4-dimethoxyphenyl)-3-isopropyl-1H-indol-5-yl)piperidin-1-yl)methyl)benzonitrile]
0.145	0.165	CCCCN1CCC(N2CCC(c3ccc4[nH]c(-c5ccc(OC)c(OC)c5)c(C)c4c3)CC2)CC1 [Example 82, 5-(1′-butyl-[1,4′-bipiperidin]-4-yl)-2-(3,4-dimethoxyphenyl)-3-methyl-1H-indole]
0.107	5.17	CCc1c(-c2ccc(OC)c(OC)c2)[nH]c2ccc(C3CCN(C(=O)CNC(CO)CO)CC3)cc12 [Example 165, 2-((1,3-dihydroxypropan-2-yl)amino)-1-(4-(2-(3,4-dimethoxyphenyl)-3-ethyl-1H-indol-5-yl)piperidin-1-yl)ethan-1-one]
0.409	0.217	COc1ccc(-c2[nH]c3ccc(C4CCN(C5CCN(CCC(C)O)CC5)CC4)cc3c2C)cc1OC (centres unmarked) [Example 56, 4-(4-(2-(3,4-dimethoxyphenyl)-3-methyl-1H-indol-5-yl)-[1,4′-bipiperidin]-1′-yl)butan-2-ol]
